Data: the kinase profiling compilation of Christmann-Franck et al. (2016)

Legend:
Experiment in all cases: radiometric filter-binding kinase assay
HIPK3 (human) = HIPK3 (human) (UniProt Q9H422)
MAPK1 (human) = MAPK1 (human) (UniProt P28482)
BRSK2 (human) = BRSK2 (human) (UniProt Q8IWQ3)
PAK6 (human) = PAK6 (human) (UniProt Q9NQU5)
PRKCA (human) = PRKCA (human) (UniProt P17252)
CDK2 CCNA2 (human) = CDK2 CCNA2 (human) (UniProt P20248+P24941)
CHEK2 (human) = CHEK2 (human) (UniProt O96017)
MARK3 (human) = MARK3 (human) (UniProt P27448)
MAPK3 (human) = MAPK3 (human) (UniProt P27361)
STK3 (human) = STK3 (human) (UniProt Q13188)
CHEK1 (human) = CHEK1 (human) (UniProt O14757)
[1] = tested on: SGK1 (human), O00141 [S422D]
RPS6KA1 KD1 KD2 (human) = RPS6KA1 KD1 KD2 (human) (UniProt Q15418)
PRKCZ (human) = PRKCZ (human) (UniProt Q05513)
SRC (human) = SRC (human) (UniProt P12931)
RPS6KA5 KD1 KD2 (human) = RPS6KA5 KD1 KD2 (human) (UniProt O75582)
RPS6KA3 KD1 KD2 (human) = RPS6KA3 KD1 KD2 (human) (UniProt P51812)
PLK1 (human) = PLK1 (human) (UniProt P53350)
EEF2K (human) = EEF2K (human) (UniProt O00418)
MARK4 (human) = MARK4 (human) (UniProt Q96L34)
AURKA (human) = AURKA (human) (UniProt O14965)
NUAK1 (human) = NUAK1 (human) (UniProt O60285)
GCK (human) = GCK (human) (UniProt Q12851)
HIPK1 (human) = HIPK1 (human) (UniProt Q86Z02)
ERBB4 (human) = ERBB4 (human) (UniProt Q15303)
MST4 (human) = MST4 (human) (UniProt Q9P289)
FLT1 (human) = FLT1 (human) (UniProt P17948)

Chain of STK3 (human) (Q13188 whole entry, looked up): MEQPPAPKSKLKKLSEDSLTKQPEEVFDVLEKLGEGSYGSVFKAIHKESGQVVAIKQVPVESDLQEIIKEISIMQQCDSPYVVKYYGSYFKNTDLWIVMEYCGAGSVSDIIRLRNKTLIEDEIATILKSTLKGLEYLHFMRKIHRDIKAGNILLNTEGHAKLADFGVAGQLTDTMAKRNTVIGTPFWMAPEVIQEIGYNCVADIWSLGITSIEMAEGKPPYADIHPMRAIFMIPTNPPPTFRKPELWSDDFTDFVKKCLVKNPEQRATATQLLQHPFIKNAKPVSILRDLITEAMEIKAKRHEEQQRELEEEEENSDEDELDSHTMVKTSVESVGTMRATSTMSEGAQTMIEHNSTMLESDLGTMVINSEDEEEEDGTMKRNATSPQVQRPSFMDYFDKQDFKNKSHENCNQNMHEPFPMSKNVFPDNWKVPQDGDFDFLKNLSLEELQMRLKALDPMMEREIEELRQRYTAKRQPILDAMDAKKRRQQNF
Chain of MAPK1 (human) (P28482 whole entry, looked up): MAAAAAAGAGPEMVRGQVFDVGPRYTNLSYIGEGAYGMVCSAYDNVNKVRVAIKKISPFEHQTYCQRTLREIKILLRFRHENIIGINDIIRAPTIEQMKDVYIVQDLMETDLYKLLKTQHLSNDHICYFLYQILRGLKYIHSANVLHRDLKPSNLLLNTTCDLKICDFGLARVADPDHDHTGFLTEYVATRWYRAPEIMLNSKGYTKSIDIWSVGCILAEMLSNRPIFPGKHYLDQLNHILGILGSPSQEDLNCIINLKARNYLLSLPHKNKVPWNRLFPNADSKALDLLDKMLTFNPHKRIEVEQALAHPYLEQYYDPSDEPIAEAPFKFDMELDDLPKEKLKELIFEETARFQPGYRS
Chain of PRKCZ (human) (Q05513 whole entry, looked up): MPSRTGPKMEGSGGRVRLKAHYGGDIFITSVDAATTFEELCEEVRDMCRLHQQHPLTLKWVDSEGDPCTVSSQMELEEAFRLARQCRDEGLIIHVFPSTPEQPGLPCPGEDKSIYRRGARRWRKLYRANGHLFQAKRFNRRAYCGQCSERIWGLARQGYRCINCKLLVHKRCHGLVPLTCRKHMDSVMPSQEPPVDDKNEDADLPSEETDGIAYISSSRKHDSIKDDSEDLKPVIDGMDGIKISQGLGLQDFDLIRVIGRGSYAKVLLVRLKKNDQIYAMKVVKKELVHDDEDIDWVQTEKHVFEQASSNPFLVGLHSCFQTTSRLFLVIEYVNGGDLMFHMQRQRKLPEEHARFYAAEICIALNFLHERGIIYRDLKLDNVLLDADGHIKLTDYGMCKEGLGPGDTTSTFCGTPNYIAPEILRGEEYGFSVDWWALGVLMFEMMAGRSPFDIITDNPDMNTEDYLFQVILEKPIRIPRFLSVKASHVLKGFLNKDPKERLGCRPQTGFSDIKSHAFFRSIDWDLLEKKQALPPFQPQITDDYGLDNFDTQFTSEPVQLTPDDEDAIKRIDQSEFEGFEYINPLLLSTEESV
Chain of PAK6 (human) (Q9NQU5 whole entry, looked up): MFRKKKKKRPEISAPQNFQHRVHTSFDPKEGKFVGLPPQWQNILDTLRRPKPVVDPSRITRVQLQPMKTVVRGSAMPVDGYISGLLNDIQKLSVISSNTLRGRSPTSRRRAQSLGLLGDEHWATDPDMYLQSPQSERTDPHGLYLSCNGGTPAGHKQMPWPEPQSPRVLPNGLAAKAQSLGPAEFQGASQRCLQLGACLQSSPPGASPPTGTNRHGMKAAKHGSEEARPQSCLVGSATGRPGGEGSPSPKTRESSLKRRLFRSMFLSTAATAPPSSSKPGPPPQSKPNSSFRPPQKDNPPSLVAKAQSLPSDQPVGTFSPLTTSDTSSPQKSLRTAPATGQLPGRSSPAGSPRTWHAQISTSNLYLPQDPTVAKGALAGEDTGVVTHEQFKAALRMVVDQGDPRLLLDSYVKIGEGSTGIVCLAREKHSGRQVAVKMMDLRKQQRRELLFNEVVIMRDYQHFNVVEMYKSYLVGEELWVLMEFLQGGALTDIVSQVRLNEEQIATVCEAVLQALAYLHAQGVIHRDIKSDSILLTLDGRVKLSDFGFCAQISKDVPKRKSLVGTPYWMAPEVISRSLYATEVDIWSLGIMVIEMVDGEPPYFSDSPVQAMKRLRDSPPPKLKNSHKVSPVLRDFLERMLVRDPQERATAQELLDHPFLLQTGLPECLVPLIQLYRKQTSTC
Chain of RPS6KA1 KD1 KD2 (human) (Q15418 whole entry, looked up): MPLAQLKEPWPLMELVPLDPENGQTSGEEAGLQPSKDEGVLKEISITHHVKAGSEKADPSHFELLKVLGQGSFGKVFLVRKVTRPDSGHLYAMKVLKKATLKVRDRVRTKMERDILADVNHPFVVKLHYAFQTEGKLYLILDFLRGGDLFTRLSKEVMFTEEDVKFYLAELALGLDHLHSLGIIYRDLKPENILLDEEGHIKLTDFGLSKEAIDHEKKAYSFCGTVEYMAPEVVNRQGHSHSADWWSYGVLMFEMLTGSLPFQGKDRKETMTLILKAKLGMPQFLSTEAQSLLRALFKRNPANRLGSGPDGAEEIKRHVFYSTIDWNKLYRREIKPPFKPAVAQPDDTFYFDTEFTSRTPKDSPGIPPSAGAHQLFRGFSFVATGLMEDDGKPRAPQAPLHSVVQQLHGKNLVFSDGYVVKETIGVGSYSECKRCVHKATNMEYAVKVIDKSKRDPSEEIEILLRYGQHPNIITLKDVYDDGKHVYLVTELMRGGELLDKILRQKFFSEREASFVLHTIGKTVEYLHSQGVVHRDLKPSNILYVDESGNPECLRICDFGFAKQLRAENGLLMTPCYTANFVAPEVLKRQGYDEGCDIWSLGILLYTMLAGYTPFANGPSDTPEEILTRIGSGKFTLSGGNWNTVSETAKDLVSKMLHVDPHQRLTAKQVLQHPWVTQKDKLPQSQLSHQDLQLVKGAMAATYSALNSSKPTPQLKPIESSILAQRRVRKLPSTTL
Chain of SRC (human) (P12931 whole entry, looked up): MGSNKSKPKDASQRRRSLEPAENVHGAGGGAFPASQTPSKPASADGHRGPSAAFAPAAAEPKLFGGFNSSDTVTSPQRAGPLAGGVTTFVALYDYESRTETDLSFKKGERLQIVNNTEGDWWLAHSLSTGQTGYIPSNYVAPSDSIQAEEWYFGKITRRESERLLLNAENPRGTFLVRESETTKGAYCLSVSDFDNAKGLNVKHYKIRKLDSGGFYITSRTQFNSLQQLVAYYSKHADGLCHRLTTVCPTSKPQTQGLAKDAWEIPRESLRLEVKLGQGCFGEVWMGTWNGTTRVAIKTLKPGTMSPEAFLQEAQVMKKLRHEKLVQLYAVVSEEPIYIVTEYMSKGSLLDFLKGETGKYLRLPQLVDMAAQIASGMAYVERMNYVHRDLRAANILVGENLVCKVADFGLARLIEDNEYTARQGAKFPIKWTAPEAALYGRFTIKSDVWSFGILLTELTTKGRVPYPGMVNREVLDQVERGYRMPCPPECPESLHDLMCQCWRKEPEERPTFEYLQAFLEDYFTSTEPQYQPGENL
Chain of CHEK1 (human) (O14757 whole entry, looked up): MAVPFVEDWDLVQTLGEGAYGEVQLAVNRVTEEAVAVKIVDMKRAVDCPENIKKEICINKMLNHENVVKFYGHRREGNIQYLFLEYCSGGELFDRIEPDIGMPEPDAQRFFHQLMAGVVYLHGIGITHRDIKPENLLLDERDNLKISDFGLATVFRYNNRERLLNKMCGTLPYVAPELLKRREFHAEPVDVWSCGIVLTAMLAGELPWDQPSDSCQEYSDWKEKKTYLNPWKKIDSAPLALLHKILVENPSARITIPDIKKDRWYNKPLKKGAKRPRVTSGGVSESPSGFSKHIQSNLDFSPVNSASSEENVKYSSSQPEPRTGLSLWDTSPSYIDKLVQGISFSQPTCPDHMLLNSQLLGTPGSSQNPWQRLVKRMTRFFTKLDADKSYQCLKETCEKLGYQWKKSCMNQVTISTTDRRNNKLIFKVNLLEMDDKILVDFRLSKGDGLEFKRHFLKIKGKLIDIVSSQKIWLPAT
Chain of MAPK3 (human) (P27361 whole entry, looked up): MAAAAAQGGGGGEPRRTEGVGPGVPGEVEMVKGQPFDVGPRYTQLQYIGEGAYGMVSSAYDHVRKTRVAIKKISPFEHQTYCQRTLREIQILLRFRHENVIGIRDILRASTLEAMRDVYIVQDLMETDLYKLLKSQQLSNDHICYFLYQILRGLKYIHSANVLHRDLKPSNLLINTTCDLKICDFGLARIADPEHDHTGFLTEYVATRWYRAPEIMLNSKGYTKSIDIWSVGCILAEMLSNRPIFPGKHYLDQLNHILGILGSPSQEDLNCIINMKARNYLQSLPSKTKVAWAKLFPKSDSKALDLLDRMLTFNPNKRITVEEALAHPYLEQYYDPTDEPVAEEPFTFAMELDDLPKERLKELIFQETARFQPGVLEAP

Cc1cccc(Nc2nn(C)c3ncnc(N)c23)c1
residual activity (HIPK3 (human); compound 1.0 µM): 136% | residual activity (HIPK3 (human); compound 10.0 µM): 138% | residual activity (MAPK1 (human); compound 1.0 µM): 116% | residual activity (MAPK1 (human); compound 10.0 µM): 111% | residual activity (BRSK2 (human); compound 1.0 µM): 102% | residual activity (BRSK2 (human); compound 10.0 µM): 100% | residual activity (PAK6 (human); compound 1.0 µM): 103% | residual activity (PAK6 (human); compound 10.0 µM): 102% | residual activity (PRKCA (human); compound 1.0 µM): 102% | residual activity (PRKCA (human); compound 10.0 µM): 117% | residual activity (CDK2 CCNA2 (human); compound 1.0 µM): 97% | residual activity (CDK2 CCNA2 (human); compound 10.0 µM): 91% | residual activity (CHEK2 (human); compound 1.0 µM): 84% | residual activity (CHEK2 (human); compound 10.0 µM): 98% | residual activity (MARK3 (human); compound 1.0 µM): 89% | residual activity (MARK3 (human); compound 10.0 µM): 94% | residual activity (MAPK3 (human); compound 1.0 µM): 114% | residual activity (MAPK3 (human); compound 10.0 µM): 108% | residual activity (STK3 (human); compound 1.0 µM): 90% | residual activity (STK3 (human); compound 10.0 µM): 102% | residual activity (CHEK1 (human); compound 1.0 µM): 109% | residual activity (CHEK1 (human); compound 10.0 µM): 115% | residual activity ([1]; compound 1.0 µM): 104% | residual activity ([1]; compound 10.0 µM): 113% | residual activity (RPS6KA1 KD1 KD2 (human); compound 1.0 µM): 108% | residual activity (RPS6KA1 KD1 KD2 (human); compound 10.0 µM): 101% | residual activity (PRKCZ (human); compound 1.0 µM): 89% | residual activity (PRKCZ (human); compound 10.0 µM): 112% | residual activity (SRC (human); compound 1.0 µM): 97% | residual activity (SRC (human); compound 10.0 µM): 100% | residual activity (RPS6KA5 KD1 KD2 (human); compound 1.0 µM): 92% | residual activity (RPS6KA5 KD1 KD2 (human); compound 10.0 µM): 100% | residual activity (RPS6KA3 KD1 KD2 (human); compound 1.0 µM): 88% | residual activity (RPS6KA3 KD1 KD2 (human); compound 10.0 µM): 99% | residual activity (PLK1 (human); compound 1.0 µM): 96% | residual activity (PLK1 (human); compound 10.0 µM): 106% | residual activity (EEF2K (human); compound 1.0 µM): 97% | residual activity (EEF2K (human); compound 10.0 µM): 96%

CN1C(=O)[C@@H](Cc2c[nH]c3ccccc23)NC1=S
residual activity (HIPK3 (human); compound 1.0 µM): 111% | residual activity (HIPK3 (human); compound 10.0 µM): 102% | residual activity (MARK4 (human); compound 1.0 µM): 98% | residual activity (MARK4 (human); compound 10.0 µM): 96% | residual activity (MAPK1 (human); compound 1.0 µM): 94% | residual activity (MAPK1 (human); compound 10.0 µM): 92% | residual activity (BRSK2 (human); compound 1.0 µM): 91% | residual activity (BRSK2 (human); compound 10.0 µM): 85% | residual activity (AURKA (human); compound 1.0 µM): 101% | residual activity (AURKA (human); compound 10.0 µM): 102% | residual activity (PAK6 (human); compound 1.0 µM): 93% | residual activity (PAK6 (human); compound 10.0 µM): 99% | residual activity (NUAK1 (human); compound 1.0 µM): 108% | residual activity (NUAK1 (human); compound 10.0 µM): 101% | residual activity (PRKCA (human); compound 1.0 µM): 97% | residual activity (PRKCA (human); compound 10.0 µM): 96% | residual activity (CDK2 CCNA2 (human); compound 1.0 µM): 77% | residual activity (CDK2 CCNA2 (human); compound 10.0 µM): 93% | residual activity (CHEK2 (human); compound 1.0 µM): 92% | residual activity (CHEK2 (human); compound 10.0 µM): 86% | residual activity (MARK3 (human); compound 1.0 µM): 94% | residual activity (MARK3 (human); compound 10.0 µM): 98% | residual activity (MAPK3 (human); compound 10.0 µM): 93% | residual activity (GCK (human); compound 1.0 µM): 110% | residual activity (GCK (human); compound 10.0 µM): 89% | residual activity (HIPK1 (human); compound 1.0 µM): 91% | residual activity (HIPK1 (human); compound 10.0 µM): 91% | residual activity (STK3 (human); compound 1.0 µM): 94% | residual activity (STK3 (human); compound 10.0 µM): 104% | residual activity (CHEK1 (human); compound 1.0 µM): 109% | residual activity (CHEK1 (human); compound 10.0 µM): 103% | residual activity ([1]; compound 1.0 µM): 99% | residual activity ([1]; compound 10.0 µM): 98% | residual activity (RPS6KA1 KD1 KD2 (human); compound 1.0 µM): 80% | residual activity (RPS6KA1 KD1 KD2 (human); compound 10.0 µM): 92% | residual activity (ERBB4 (human); compound 1.0 µM): 109% | residual activity (ERBB4 (human); compound 10.0 µM): 104% | residual activity (PRKCZ (human); compound 1.0 µM): 70% | residual activity (PRKCZ (human); compound 10.0 µM): 83% | residual activity (SRC (human); compound 1.0 µM): 98% | residual activity (SRC (human); compound 10.0 µM): 110% | residual activity (MST4 (human); compound 1.0 µM): 103% | residual activity (MST4 (human); compound 10.0 µM): 112% | residual activity (RPS6KA5 KD1 KD2 (human); compound 1.0 µM): 78% | residual activity (RPS6KA5 KD1 KD2 (human); compound 10.0 µM): 90% | residual activity (RPS6KA3 KD1 KD2 (human); compound 1.0 µM): 91% | residual activity (RPS6KA3 KD1 KD2 (human); compound 10.0 µM): 92% | residual activity (FLT1 (human); compound 1.0 µM): 91% | residual activity (FLT1 (human); compound 10.0 µM): 88% | residual activity (PLK1 (human); compound 1.0 µM): 81% | residual activity (PLK1 (human); compound 10.0 µM): 88% | residual activity (EEF2K (human); compound 1.0 µM): 83% | residual activity (EEF2K (human); compound 10.0 µM): 75%
